Several values for one entry are separate records, joined by “and”; a condition that tells them apart may be missing. Equal entries are not always repeated.
Tested on: innately activated TLR4 signal in P rat VTA
Test: TLR4 signaling in P rat VTA after systemic neurosteroid (immunoblot, MCP-1 ELISA)
Assay type: in vivo
Conditions: 45 minutes
Method: Immunoblotting for whole VTA lysates was done as previously described (Carlson et al, 2013). Briefly, VTA micropunches (1 mm thick) were lysed with CelLytic MT (dialyzable mild detergent, bicine, and 150 mM NaCl; Sigma-Aldrich) and protease and phosphatase inhibitor cocktail according to the manufacturer's instructions. Total protein was determined by the BCA assay. The proteins (10 μg/lane) were resolved by NuPAGE™ 4-12% Bis-Tris Midi Protein Gel (Thermo Fisher, Waltham, Mass.) electrophoresis and transferred using the iBlot 2 Dry Blotting System (Thermo Fisher, Waltham, Mass.). Blots were then exposed to an antibody for β-actin for normalization. Proteins were detected with enhanced chemilumenescence (GE Healthcare, Amersham, UK). Membranes were exposed to film under non-saturating conditions. Densitometric analysis was conducted using NIH Image 1.57.
Animals. Selectively bred, but alcohol naïve Alcohol-preferring (P) rats (male, 3-4 months old; 250-550 g) (n=7-9/group) were obtained from the Alcohol Research Center, Indiana University School of Medicine, Animals were double housed in Plexiglas cages containing corn cob bedding and food and water was available ad libitum. The colony room was maintained on a normal 12 hr light-dark cycle (light onset at 0700 hr). Procedures followed National Institutes of Health Guidelines under UNC institutional Animal Care and Use Committee approved protocols at University of North Carolina School of Medicine. Rats were habituated to handling for 7 days prior to administration of 3α,5α-THP (15 mg/kg, IP), pregnenolone (75 mg/kg, IP), 3α,5α-THDOC (15 mg/kg, IP), or vehicle (45% w/v 2-hydroxypropyl-p-cyclodextrin) and returned to their home cage. Rats were sacrificed after 45 minutes and the brain was removed and frozen at −80° C. until VTA micropunches were collected from 1 mm cryostat brain sections. This time point was selected because 3α,5α-THP is rapidly metabolized in vivo (Purdy et al, 1990), but has behavioral and pharmacological activity at this time point (Crawley et al, 1986).
ELISA. Brain tissue micropunches were lysed with Cellyte MT and the extracts were assayed for protein content by the BCA procedure (Pierce) and for MCP-1 using the rat MCP-1 ELISA kit (Raybiotech—ERC-MCP-1-CL; Norcross, Ga., USA) or for fracktalkine using the rat fractalkine ELISA kit (Raybiotech—ERC-CX3CL1-CL; Norcross, Ga., USA) as per manufacturer's instructions.
Since the neurosteroids inhibited the TLR4 activation signal in cultured macrophage cells, experiments were conducted to determine whether this also occurs in the brain. Selectively bred P rats that have an innately activated TLR4 signal in the VTA (Liu J, et al. (2011). Proc Natl Acad Sci USA 108(11): 4465-4470), were administered 3α,5α-THP (15 mg/kg, IP) or pregnenolone (75 mg/kg, IP), sacrificed after 45 minutes and examined for TLR4 signaling using parallel measures. […] 3α,5α-THP administration reduced the levels of MCP-1 by 20±9% (p<0.05), TRAF6 by 19±3% (p<0.0001), and CRF by 28±9% (p<0.01), with no effect on TLR4 protein expression (FIG. 4A). Pregnenolone administration had no effect on TRAF6, CRF, or TLR4.

Row | Compound | effect on TLR4 protein expression in VTA (15 mg/kg IP, P rats) | reduction of CRF levels in VTA (15 mg/kg IP, male P rats) | reduction of TRAF6 levels in VTA (15 mg/kg IP, male P rats) | reduction of MCP-1 levels in VTA (15 mg/kg IP, male P rats, ELISA) | effect on CRF in VTA (75 mg/kg IP, P rats) | effect on TLR4 in VTA (75 mg/kg IP, P rats) | effect on TRAF6 in VTA (75 mg/kg IP, P rats)
1 | CC(=O)[C@H]1CC[C@H]2[C@@H]3CC[C@H]4C[C@H](O)CC[C@]4(C)[C@H]3CC[C@]12C [3α,5α-THP, (3α,5α)3-hydroxypregnan-20-one] | no effect | 28±9% and ~30% | 19±3% and ~20% | 20±9% and ~20% | – | – | –
2 | CC(=O)[C@H]1CC[C@H]2[C@@H]3CC=C4C[C@@H](O)CC[C@]4(C)[C@H]3CC[C@]12C [pregnenolone] | – | – | – | – | no effect | no effect | no effect

Reference: patent US20210205329A1 (The University of North Carolina at Chapel Hill, priority 2018, published 2021)
